Results as given in the supplement of paper PMC10307832.

Tests used:
Assay in all cases: relative viability (nuclei count vs DMSO), 5 days (fraction); higher = more cells survive
BEN = system: BEN
How it was run: (§1)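 Relative viability divides the nuclei count in treated wells by that in vehicle wells. Lung cancer cell lines were seeded in 1536-well plates, dosed by pin tool the next day, and fixed and stained after 5 days in one step with final 0.05% Triton X-100, 1% formaldehyde and 1 ug/ml Hoechst. Dosing was a single drug or a fixed anchor-drug dose plus five library-drug doses (not always all listed) in √10 steps, and values are medians of duplicate plates imaged at 4×.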

NCI-H2085 = system: NCI-H2085
How it was run: as §1

NCI-H1666 = system: NCI-H1666
How it was run: as §1

NCI-H596 = system: NCI-H596
How it was run: as §1

HARA = system: HARA
How it was run: as §1

NCI-H1651 = system: NCI-H1651
How it was run: as §1

CAL-12T = system: CAL-12T
How it was run: as §1

NCI-H727 = system: NCI-H727
How it was run: as §1

RERF-LC-KJ = system: RERF-LC-KJ
How it was run: as §1

NCI-H1734 = system: NCI-H1734
How it was run: as §1

NCI-H1975 = system: NCI-H1975
How it was run: as §1

NCI-H2126 = system: NCI-H2126
How it was run: as §1

NCI-H647 = system: NCI-H647
How it was run: as §1

NCI-H1944 = system: NCI-H1944
How it was run: as §1

NCI-H520 = system: NCI-H520
How it was run: as §1

A-427 = system: A-427
How it was run: as §1

NCI-H661 = system: NCI-H661
How it was run: as §1

NCI-H838 = system: NCI-H838
How it was run: as §1

NCI-H460 = system: NCI-H460
How it was run: as §1

LOU-NH91 = system: LOU-NH91
How it was run: as §1

LCLC-103H = system: LCLC-103H
How it was run: as §1

ABC-1 = system: ABC-1
How it was run: as §1

SW 900 = system: SW 900
How it was run: as §1

Question: Cc1csc(=NC2CCCCC2)n1/N=C/c1ccc(O)c(O)c1O [MIM1] + N=C(N)NC(=N)NCCc1ccccc1 [Phenformin] (partner 250 µM) was tested. Which relative viability (BEN; first compound 0.2 µM) did it give?
Answer: 0.261

Question: And the relative viability (BEN; first compound 0.6325 µM)?
Answer: 0.236

Question: And the relative viability (BEN; first compound 2 µM)?
Answer: 0.236

Question: And the relative viability (BEN; first compound 6.325 µM)?
Answer: 0.28

Question: What about the relative viability (BEN; first compound 20 µM) of the same compound?
Answer: 0.213

Question: And the relative viability (NCI-H2085; first compound 0.2 µM)?
Answer: 0.739

Question: What about the relative viability (NCI-H2085; first compound 0.6325 µM) of the same compound?
Answer: 0.713

Question: And the relative viability (NCI-H2085; first compound 2 µM)?
Answer: 0.788

Question: And the relative viability (NCI-H2085; first compound 6.325 µM)?
Answer: 0.589

Question: What about the relative viability (NCI-H2085; first compound 20 µM) of the same compound?
Answer: 0.468

Question: What about the relative viability (NCI-H1666; first compound 0.2 µM) of the same compound?
Answer: 0.578

Question: And the relative viability (NCI-H1666; first compound 0.6325 µM)?
Answer: 0.607

Question: And the relative viability (NCI-H1666; first compound 2 µM)?
Answer: 0.517

Question: What about the relative viability (NCI-H1666; first compound 6.325 µM) of the same compound?
Answer: 0.456

Question: What about the relative viability (NCI-H1666; first compound 20 µM) of the same compound?
Answer: 0.26

Question: What about the relative viability (NCI-H596; first compound 0.2 µM) of the same compound?
Answer: 0.705

Question: What about the relative viability (NCI-H596; first compound 0.6325 µM) of the same compound?
Answer: 0.829

Question: What about the relative viability (NCI-H596; first compound 2 µM) of the same compound?
Answer: 0.733

Question: And the relative viability (NCI-H596; first compound 6.325 µM)?
Answer: 0.676

Question: What about the relative viability (NCI-H596; first compound 20 µM) of the same compound?
Answer: 0.773

Question: And the relative viability (HARA; first compound 0.2 µM)?
Answer: 0.455

Question: What about the relative viability (HARA; first compound 2 µM) of the same compound?
Answer: 0.49

Question: What about the relative viability (HARA; first compound 6.325 µM) of the same compound?
Answer: 0.16

Question: What about the relative viability (HARA; first compound 20 µM) of the same compound?
Answer: 0.0907

Question: What about the relative viability (NCI-H1651; first compound 0.2 µM) of the same compound?
Answer: 0.351

Question: And the relative viability (NCI-H1651; first compound 0.6325 µM)?
Answer: 0.275

Question: What about the relative viability (NCI-H1651; first compound 2 µM) of the same compound?
Answer: 0.39

Question: What about the relative viability (NCI-H1651; first compound 6.325 µM) of the same compound?
Answer: 0.291

Question: And the relative viability (NCI-H1651; first compound 20 µM)?
Answer: 0.165

Question: And the relative viability (CAL-12T; first compound 0.2 µM)?
Answer: 0.614

Question: What about the relative viability (CAL-12T; first compound 0.6325 µM) of the same compound?
Answer: 0.467

Question: What about the relative viability (CAL-12T; first compound 2 µM) of the same compound?
Answer: 0.586

Question: And the relative viability (CAL-12T; first compound 6.325 µM)?
Answer: 0.372

Question: And the relative viability (CAL-12T; first compound 20 µM)?
Answer: 0.119

Question: And the relative viability (NCI-H727; first compound 0.2 µM)?
Answer: 0.513

Question: And the relative viability (NCI-H727; first compound 0.6325 µM)?
Answer: 0.559

Question: What about the relative viability (NCI-H727; first compound 2 µM) of the same compound?
Answer: 0.481

Question: What about the relative viability (NCI-H727; first compound 6.325 µM) of the same compound?
Answer: 0.561

Question: What about the relative viability (NCI-H727; first compound 20 µM) of the same compound?
Answer: 0.301

Question: And the relative viability (RERF-LC-KJ; first compound 0.2 µM)?
Answer: 0.447

Question: What about the relative viability (RERF-LC-KJ; first compound 0.6325 µM) of the same compound?
Answer: 0.414

Question: And the relative viability (RERF-LC-KJ; first compound 2 µM)?
Answer: 0.348

Question: And the relative viability (RERF-LC-KJ; first compound 6.325 µM)?
Answer: 0.353

Question: And the relative viability (RERF-LC-KJ; first compound 20 µM)?
Answer: 0.303

Question: And the relative viability (NCI-H1734; first compound 0.2 µM)?
Answer: 0.395

Question: And the relative viability (NCI-H1734; first compound 0.6325 µM)?
Answer: 0.375

Question: What about the relative viability (NCI-H1734; first compound 2 µM) of the same compound?
Answer: 0.443

Question: And the relative viability (NCI-H1734; first compound 6.325 µM)?
Answer: 0.35

Question: And the relative viability (NCI-H1734; first compound 20 µM)?
Answer: 0.179

Question: And the relative viability (NCI-H1975; first compound 0.2 µM)?
Answer: 0.432

Question: And the relative viability (NCI-H1975; first compound 0.6325 µM)?
Answer: 0.403

Question: What about the relative viability (NCI-H1975; first compound 2 µM) of the same compound?
Answer: 0.39

Question: And the relative viability (NCI-H1975; first compound 6.325 µM)?
Answer: 0.296

Question: And the relative viability (NCI-H1975; first compound 20 µM)?
Answer: 0.179

Question: And the relative viability (NCI-H2126; first compound 0.2 µM)?
Answer: 0.512

Question: What about the relative viability (NCI-H2126; first compound 0.6325 µM) of the same compound?
Answer: 0.524

Question: What about the relative viability (NCI-H2126; first compound 2 µM) of the same compound?
Answer: 0.54

Question: And the relative viability (NCI-H2126; first compound 6.325 µM)?
Answer: 0.45

Question: And the relative viability (NCI-H2126; first compound 20 µM)?
Answer: 0.391

Question: And the relative viability (NCI-H647; first compound 0.2 µM)?
Answer: 0.602

Question: And the relative viability (NCI-H647; first compound 0.6325 µM)?
Answer: 0.431

Question: And the relative viability (NCI-H647; first compound 6.325 µM)?
Answer: 0.4

Question: And the relative viability (NCI-H647; first compound 20 µM)?
Answer: 0.0969

Question: And the relative viability (NCI-H1944; first compound 0.2 µM)?
Answer: 0.208

Question: What about the relative viability (NCI-H1944; first compound 0.6325 µM) of the same compound?
Answer: 0.206

Question: What about the relative viability (NCI-H1944; first compound 2 µM) of the same compound?
Answer: 0.149

Question: And the relative viability (NCI-H1944; first compound 6.325 µM)?
Answer: 0.163

Question: What about the relative viability (NCI-H1944; first compound 20 µM) of the same compound?
Answer: 0.104

Question: What about the relative viability (NCI-H520; first compound 0.2 µM) of the same compound?
Answer: 0.793

Question: And the relative viability (NCI-H520; first compound 0.6325 µM)?
Answer: 0.512

Question: And the relative viability (NCI-H520; first compound 2 µM)?
Answer: 0.561

Question: What about the relative viability (NCI-H520; first compound 6.325 µM) of the same compound?
Answer: 0.447

Question: And the relative viability (NCI-H520; first compound 20 µM)?
Answer: 0.323

Question: And the relative viability (A-427; first compound 0.2 µM)?
Answer: 0.35

Question: And the relative viability (A-427; first compound 2 µM)?
Answer: 0.361

Question: And the relative viability (A-427; first compound 6.325 µM)?
Answer: 0.244

Question: What about the relative viability (A-427; first compound 20 µM) of the same compound?
Answer: 0.137

Question: What about the relative viability (NCI-H661; first compound 0.2 µM) of the same compound?
Answer: 0.254

Question: And the relative viability (NCI-H661; first compound 0.6325 µM)?
Answer: 0.28

Question: What about the relative viability (NCI-H661; first compound 2 µM) of the same compound?
Answer: 0.274

Question: What about the relative viability (NCI-H661; first compound 6.325 µM) of the same compound?
Answer: 0.26

Question: And the relative viability (NCI-H661; first compound 20 µM)?
Answer: 0.24

Question: What about the relative viability (NCI-H838; first compound 0.2 µM) of the same compound?
Answer: 0.543

Question: What about the relative viability (NCI-H838; first compound 0.6325 µM) of the same compound?
Answer: 0.621

Question: And the relative viability (NCI-H838; first compound 2 µM)?
Answer: 0.562

Question: What about the relative viability (NCI-H838; first compound 6.325 µM) of the same compound?
Answer: 0.354

Question: What about the relative viability (NCI-H838; first compound 20 µM) of the same compound?
Answer: 0.14

Question: And the relative viability (NCI-H460; first compound 0.2 µM)?
Answer: 0.497

Question: And the relative viability (NCI-H460; first compound 0.6325 µM)?
Answer: 0.531

Question: And the relative viability (NCI-H460; first compound 2 µM)?
Answer: 0.387

Question: What about the relative viability (NCI-H460; first compound 6.325 µM) of the same compound?
Answer: 0.172

Question: What about the relative viability (NCI-H460; first compound 20 µM) of the same compound?
Answer: 0.0325

Question: What about the relative viability (LOU-NH91; first compound 0.2 µM) of the same compound?
Answer: 0.695

Question: And the relative viability (LOU-NH91; first compound 0.6325 µM)?
Answer: 0.709

Question: And the relative viability (LOU-NH91; first compound 2 µM)?
Answer: 0.625

Question: And the relative viability (LOU-NH91; first compound 6.325 µM)?
Answer: 0.548

Question: What about the relative viability (LOU-NH91; first compound 20 µM) of the same compound?
Answer: 0.302

Question: What about the relative viability (LCLC-103H; first compound 0.2 µM) of the same compound?
Answer: 0.334

Question: What about the relative viability (LCLC-103H; first compound 0.6325 µM) of the same compound?
Answer: 0.297

Question: What about the relative viability (LCLC-103H; first compound 2 µM) of the same compound?
Answer: 0.354

Question: What about the relative viability (LCLC-103H; first compound 6.325 µM) of the same compound?
Answer: 0.334

Question: What about the relative viability (LCLC-103H; first compound 20 µM) of the same compound?
Answer: 0.291

Question: And the relative viability (ABC-1; first compound 0.2 µM)?
Answer: 0.228

Question: What about the relative viability (ABC-1; first compound 0.6325 µM) of the same compound?
Answer: 0.261

Question: What about the relative viability (ABC-1; first compound 2 µM) of the same compound?
Answer: 0.231

Question: And the relative viability (ABC-1; first compound 6.325 µM)?
Answer: 0.201

Question: And the relative viability (ABC-1; first compound 20 µM)?
Answer: 0.189

Question: What about the relative viability (SW 900; first compound 0.2 µM) of the same compound?
Answer: 0.683

Question: What about the relative viability (SW 900; first compound 0.6325 µM) of the same compound?
Answer: 0.712

Question: And the relative viability (SW 900; first compound 2 µM)?
Answer: 0.778

Question: What about the relative viability (SW 900; first compound 6.325 µM) of the same compound?
Answer: 0.495

Question: What about the relative viability (SW 900; first compound 20 µM) of the same compound?
Answer: 0.176
